What was measured:
Type in all cases: cell-based
[1] = tested on: primary human neutrophils; experiment: Neutrophil spontaneous apoptosis by cell shrinkage (forward scatter, flow cytometry); conditions: 6 hours of culture
Experimental: FIG. 4: Inhibition of NADPH oxidase can decrease the number of cells undergoing apoptosis. Neutrophils are cultured @2×10^6/ml in a 24 well plate. Following 6 hours of culture, Forward Scatter (FSc) parameters are examined following acquisition by a FacScan. Cell shrinkage is determined by the percentage of cells with reduced FSc compared with cellular FSc parameters at t=0 h.
Onset of apoptosis as determined by cell shrinkage was determined by flow cytometry. Isolated cells are set up in culture at a concentration of 2×10^6/ml. At the indicated time points a sample is removed and the forward and side scatter parameters of the cells are measured by flow cytometry using a Becton Dickenson FACScan equipped with CellQuest software. Cell shrinkage is detected by a reduction in forward scatter parameters. Determination of apoptosis inhibition was calculated by the percentage of cells with reduced forward scatter parameters, in untreated cultures, minus percentage of cells with reduced forward scatter parameters in treated cultures.
Primary human neutrophils are isolated and puriied from the peripheral blood of normal healthy individuals. Upon culture for 6 hour in a serum-containing cell culture medium, these neutrophils undergo ‘spontaneous apoptosis’ (Haslett, Clinical Science 83, pp639-648, 1992). […]

[2] = tested on: HeLa cells; conditions: together with 5 μg/ml cycloheximide, 18 hours, crystal violet
Experimental: In our system, cells are cultured in 96 well plates in 100 μl of culture medium and are treated in ways known to induce apoptosis. Following an indicated period of time, 10 μl MTT stock solution (5 mg/mi) is added to each culture being assayed and incubated at 37° C. for 4 h. At the end of the incubation period the converted dye is solubilised with acidic-isopropanol (0.04N HCL. Absorbance of converted dye is measured at a wavelength of 570 nm.
The following example describes a method to analyse viability of adherent cells, such as HeLa, using chemical stain Crystal Violet. Adherent cells are cultured in the presence of known agents to induce/ modulate the apoptotic process. After a suitable period of time, supernatants are removed by inverting and flicking the plate. Wells are washed twice with PBS and remaining adherent cells are fixed with 100% EtOH and air-dried. To each well is added 100 μl of 1% aqueous Crystal Violet Solution (Sigma). Plates are then incubated at room temperature (RT) for 5 min before washing in tap water. Wells are solubilised in 33% acetic acid and optical density is measured at 570 nm using a plate reader.
HeLa cells are plated in full culture medium at a concentration of 2×10^4 cells/well of 96 well plate. […] Cells are cultured overnight at 37° C. before analysing for apoptosis using either MTT or crystal violet.
HeLa cells are plated in full culture medium at a concentration of 2×10^4 cells/well of 96 well plate. […] Cells are cultured overnight at 37° C. before analysing for apoptosis using crystal violet.
HeLa cells are plated into 96 well plate at a concentration of 2×10^4/well and allowed to adhere for 4 hours Culture medium is then replaced with fresh medium containing the indicated concentrations of TNFα together with 5 μg/ml cycloheximide. Cultures are maintained for a further 18 hours, before measuring apoptosis with crystal violet and reading @570 nm in a plate reader.
Cells are cultured for a further 18 h before staining the remaining adherent cells with crystal violet and measuring absorbance at 570 nm.

[3] = tested on: HeLa cells; experiment: HeLa DNA fragmentation (laddering on 2% agarose gel); conditions: TNFα dose range with 5 μg/ml cycloheximide, 18 h
Experimental: HeLa cells are plated in full culture medium at a concentration of 5×10^5 cells/well of 24 well plate. […] Cells are cultured overnight at 37° C. before being lysed (5×10^6/treatment) in lysis buffer (1M Tris, 10 mM EDTA , 0.8% sarcosine L sulphate) and incubated on ice for 15 min before centrifugation at 12000g. Supernatant is removed and phenol/chloroform extracted. Following precipitation of DNA, pellets are resuspended in Tris/EDTA buffer (TE) containing 100 μg/ml RNAase A and incubated for 2 h @37° C. Proteinase K (100 μg/ml) is then added and sample incubated for a further 18 h before […] of DNA is separated on a 2% agarose gel.
HeLa cells are plated into 24 well plate at a concentration of 5×10^5/well and allowed to adhere for 4 hours Culture medium is then replaced with fresh medium containing the indicated concentrations of TNFα together with 5 μg/ml cycloheximide. Cultures are maintained for a further 18 h, before isolation of DNA from 5×10^6 cells/treatment (as previously described) and running on a 2% gel.

Compound	percentage of cells undergoing apoptosis (cell shrinkage, reduced FSc) [1]	amount of HeLa apoptosis vs TNFα concentration [2]	DNA laddering [3]
c1ccc2c(c1)[I+]c1ccccc1-2 [DPI]	decrease the percentage of cells undergoing apoptosis	–	–
TNFα	–	dose. response	DNA fragmentation is seen in all samples treated with TNFα

— patent publication US20030180735A1, “Screening method” (priority 1999, published 2003)
